According to US12616704B2, “Cannabichromene formulation for pain management” (Zyus Life Sciences Inc., priority 2020, dated 2026):

Assays:
[1] = test system: SNL model effect; assay: Data mining (cPCA) of kinematic gait data: SNL model (analgesic) and sedation effect scores; assay type: in vivo, rats
Experimental: Data mining was successfully performed to extend the multivariate kinematic data analysis and capture the analgesic effect of cannabichromene (CBC) on quantitative measurement of parameters attributed to the temporal aspects of motion to evaluate temporal aspects of motion, such as positions, angles, velocities, and accelerations of body segments and joints during motion.
Overall, 97 gait parameters were analyzed, and each parameter was averaged within each treatment group. A statistical method using Contrastive Principal Component Analysis (cPCA) was employed (Abid et al., 2018). The method of cPCA was designed to identify different combinations of original variables linked to the Spinal Nerve Ligation (SNL) model effect (pain) and learning effect. An orthogonalization procedure was then performed to create the obtained effects independent of learning and possible sedation. After the contrastive principal components (cPCs) (Model, Sedative) were established, the corresponding cPC scores were computed for each observation. The obtained cPC scores were further analyzed by using mixed two-way ANOVA followed by Dunnett's test of the estimated marginal means. The cPCA based analysis framework was implemented using R environment (R version 3.6.3). Statistical analysis was performed using Ime4 (Bates et al., 2015) and emmeans (R package version 1.4.5.) packages. The results of these comparisons were obtained by using all the previously identified components: model effect, learning effect and model orthogonal to learning.

[2] = test system: SNL-induced mechanical hypersensitivity; assay: Tactile allodynia test (electronic von Frey, evF) in spinal nerve ligation (SNL) model; assay type: in vivo, Sprague-Dawley rats; conditions: for evF, Vehicle vs. treatment: Summary / evF, Vehicle vs. treatment: Predicted (LS) mean diff.: between groups; for evF, Vehicle vs. treatment: Predicted (LS) mean diff. / evF, Pre-Dosing vs. 2 h-PD: Predicted (LS) mean diff. / evF, Pre-Dosing vs. 4 h-PD: Predicted (LS) mean diff. / evF, Pre-Dosing vs. 8 h-PD: Predicted (LS) mean diff. / evF, Pre-Dosing vs. 24 h-PD: Predicted (LS) mean diff.: PWT % from baseline; for Post-SNL vs. BL: Predicted (LS) mean diff.: evF PWT % from baseline; for Post-SNL vs. BL: Predicted (LS) mean diff. / Post-SNL vs. BL: Significant? / Post-SNL vs. BL: Summary: baseline vs. D7 (pre-dosing, before treatment); for Post-SNL vs. BL: Predicted (LS) mean diff. / Post-SNL vs. BL: Significant? / Post-SNL vs. BL: Summary / evF, Pre-Dosing vs. 2 h-PD: Summary / evF, Pre-Dosing vs. 4 h-PD: Summary / evF, Pre-Dosing vs. 8 h-PD: Summary / evF, Pre-Dosing vs. 24 h-PD: Summary / evF, Pre-Dosing vs. 2 h-PD: Predicted (LS) mean diff. / evF, Pre-Dosing vs. 4 h-PD: Predicted (LS) mean diff. / evF, Pre-Dosing vs. 8 h-PD: Predicted (LS) mean diff. / evF, Pre-Dosing vs. 24 h-PD: Predicted (LS) mean diff.: within group; for duration of prolonged anti-nociceptive effect after one-time administration / Post-SNL vs. BL: Significant? / Post-SNL vs. BL: Summary: evF; for AUC of % PWT curve, Vehicle vs. treatment: Mean Diff. / AUC of % PWT curve, Vehicle vs. treatment: Summary: pre-dosing to 24 h PD; for evF, Pre-Dosing vs. 24 h-PD: Summary / evF, Pre-Dosing vs. 24 h-PD: Predicted (LS) mean diff.: pregabalin 50 mg/kg i.p. re-dosed 2 h before evF on D9
Experimental: The treatment groups received the following test article mixtures: • Group 1: treated with vehicle (0.9% saline) • Group 2: treated with Pregabalin (50 mg/kg) • Group 3: treated with CBC (10 mg/kg)
Administration of Treatments. CBC (cannabichromene) formulation, the vehicle, or pregabalin treatment was administered according to Table 1 on study day 8 to all study animals, and on study day 10 to 6 animals per group. The dousing route of CBC or the vehicle were intragastric (p.o.), while pregabalin was administered intraperitoneally (i.p.). In addition to D8, pregabalin was administered on D9, at 2 h prior to the evf test. All animals of the pregabalin group were euthanized on D9, following the last test trial. The CBC was dissolved and diluted to one of the following vehicles:
Spinal Nerve Ligation (SNL) Surgery. The animals were enrolled to SNL surgery in daily cohorts of n=6, according to the number of animals operated per day). The rat first received an intraperitoneal dose of 0.03 mg/kg buprenorphine (Temgesic), at minimum of 30 minutes prior to the surgery, to alleviate the operative and postoperative pain unrelated to neuropathy. The rats were anesthetized with isoflurane in 70% N2O and 30% O2; with a flow rate of 300 ml/min. Anesthesia was inducted with 5% isoflurane for 2-3 min, and maintained through a snout mask with 1-2% isoflurane thereafter.
A dorsal incision extending from L3 to S2 was performed to the medial dorsal area of the rat using aseptic technique. The L6/S1 posterior intrarticular process was exposed using a combination of blunt and sharp dissection. The L6 transverse process in the spinal column was visualized and partially removed without manipulating the nerves, followed by exposing the L4 and L5 spinal nerves distal to their emergence from the intervertebral foramina. Tight double knots of 6-0 silk suture were placed on both spinal nerves.
Tactile Allodynia Test (evF). In this study, mechanical sensitivity to punctate stimulus was defined at six time points, by using electronic von Frey (evF) device with the attached analysis software (Somedic®, Sweden).
Rats displaying inborn oversensitivity were disqualified from the study. Oversensitivity was defined as baseline paw withdrawal threshold (PWT) of <20 g with 1 mm probe. Following the baseline evF testing, the rats were weighed and numbered prior to surgery.
To perform the evF test, the rats were placed in individual von Frey test chambers standing on an elevated steel mesh. The rats were allowed to adapt in the chambers, and the test emerged after they had settled down after investigating the chamber and grooming (approximately 15 min).
Mechanical allodynia was assessed by evF test prior to SNL surgery (baseline), to define the individual “innate” sensitivity levels of the study animals. Next, the evF was performed on D7 post-SNL, to assess the hypersensitivity evoked by the SNL surgery, and to evaluate pre-dosing sensitivity values. Next day (D8), the animals were tested by evF at 2 h, at 4 h, and at 8 h post-dosing (PD). The last evF time point occurred at 24 h PD, i.e. on D9. The listed post-dosing times were used for all groups except group 2, which on D9 received pregabalin at 2 h prior to evF.
The evF apparatus was used according to the manufacturer's instructions. Briefly, upon each measurement, the force was applied to mid-plantar surface of the hind paw in a linearly increasing rate. The used evF probe diameter was 1 mm, and the chosen ascent rate of force 10 g/s. Linearity of force application was monitored real-time. The applied force (in grams) causing paw withdrawal was recorded by the
Altogether 5 repeated measurements were applied to each hind paw at each time-point, leaving a minimum of 3-min interval between the repeats. Three values closest to the median were then averaged to produce result value for each paw at any given time point. Both ipsi- and contralateral paws were tested on each test day.
Statistical Analysis. […]

[3] = Body weight monitoring in SNL study; assay type: in vivo, Sprague-Dawley rats; conditions: SNL rats; CBC 10 mg/kg, pregabalin 50 mg/kg; two-way ANOVA, Tukey's
Experimental: Body Weight Monitoring. The body weight of the animals was recorded at baseline evF testing, on the day of surgery (DO), and daily thereafter.

[4] = 2 h-PD, CBC 10 mg/kg p.o., pregabalin 50 mg/kg i.p.
[5] = 4 h-PD, CBC 10 mg/kg p.o., pregabalin 50 mg/kg i.p.
[6] = 8 h-PD, CBC 10 mg/kg p.o., pregabalin 50 mg/kg i.p.
[7] = 24 h-PD (D9), CBC 10 mg/kg p.o., pregabalin 50 mg/kg i.p. re-dosed 2 h before evF
[8] = CBC 10 mg/kg p.o., pregabalin 50 mg/kg i.p.

SMILES | evF, Vehicle vs. treatment: Summary [2, 4] | evF, Vehicle vs. treatment: Predicted (LS) mean diff. [2, 4] | evF, Vehicle vs. treatment: Summary [2, 5] | evF, Vehicle vs. treatment: Predicted (LS) mean diff. [2, 5] | evF, Vehicle vs. treatment: Summary [2, 6] | evF, Vehicle vs. treatment: Predicted (LS) mean diff. [2, 6] | evF, Vehicle vs. treatment: Summary [2, 7] | evF, Vehicle vs. treatment: Predicted (LS) mean diff. [2, 7] | evF, Vehicle vs. treatment: Summary ([2]; Pre-Dosing (D7)) | evF, Vehicle vs. treatment: Predicted (LS) mean diff. ([2]; Pre-Dosing (D7)) | Post-SNL vs. BL: Predicted (LS) mean diff. [2] | duration of prolonged anti-nociceptive effect after one-time administration [2, 8] | Post-SNL vs. BL: Significant? [2] | Post-SNL vs. BL: Summary [2] | AUC of % PWT curve, Vehicle vs. treatment: Mean Diff. [2, 8] | AUC of % PWT curve, Vehicle vs. treatment: Summary [2, 8] | evF, Pre-Dosing vs. 2 h-PD: Summary [2, 8] | evF, Pre-Dosing vs. 4 h-PD: Summary [2, 8] | evF, Pre-Dosing vs. 8 h-PD: Summary [2, 8] | evF, Pre-Dosing vs. 24 h-PD: Summary ([2]; CBC 10 mg/kg p.o.) | further results
CCCCCc1cc(O)c2c(c1)OC(C)(CCC=C(C)C)C=C2 (stereo not shown) [CBC, cannabichromene] | ns | −15.45 | ns | −10.25 | ns | −17.12 | ns | −14.84 | ns | −0.627 | 45.98 | up to 8 hours | Yes | **** (p<0.0001, extremely/highly significant) | −50.00 | ** (p<0.01, very significant) | *** (p<0.001, extremely/highly significant) | * (p<0.05, significant) | * (p<0.05, significant) | ns | SNL model effect score (analgesic effect) ([1]; 9 hours post-dosing, single dose CBC 10 mg/kg p.o.): No significant analgesic effect; SNL model score (analgesic effect) compared to vehicle group: p ([1]; D8 5 h post-dosing, single dose CBC 10 mg/kg p.o.): < 0.05; independent sedation effect score ([1]; D8, 5 h and D8, 9 h post-dosing, CBC 10 mg/kg, CBD:THC 10:10 mg/kg): did not exert any sedative effect; effect on SNL-induced hypersensitivity (evF), between-group ([2]; CBC 10 mg/kg p.o.): appears to evoke a trend of reversing hypersensitivity; evF, Pre-Dosing vs. 2 h-PD: Predicted (LS) mean diff. [2, 8]: −29.36; evF, Pre-Dosing vs. 4 h-PD: Predicted (LS) mean diff. [2, 8]: −18.71; evF, Pre-Dosing vs. 8 h-PD: Predicted (LS) mean diff. [2, 8]: −19.64; evF, Pre-Dosing vs. 24 h-PD: Predicted (LS) mean diff. ([2]; CBC 10 mg/kg p.o.): −15.44; body weight vs. vehicle over the course of the study [3]: not significantly different
CC(C)C[C@H](CN)CC(=O)O [Pregabalin, pregabalin, reference compound] | ns | −12.08 | ns | −0.8299 | ns | −12.91 | ns | −7.967 | ns | −0.02247 | 46.58 | not observed | Yes | **** (p<0.0001, extremely/highly significant) | −29.80 | • (p<0.1, an established trend towards significance) | *** (p<0.001, extremely/highly significant) | ns | ns | ns | analgesic or sedative effect in fine motor kinematic performance ([1]; pregabalin 50 mg/kg): no analgesic or sedative effect; evF, Pre-Dosing vs. 2 h-PD: Predicted (LS) mean diff. [2, 8]: −26.59; evF, Pre-Dosing vs. 4 h-PD: Predicted (LS) mean diff. [2, 8]: −9.891; evF, Pre-Dosing vs. 8 h-PD: Predicted (LS) mean diff. [2, 8]: −16.03; evF, Pre-Dosing vs. 24 h-PD: Predicted (LS) mean diff. ([2]; CBC 10 mg/kg p.o.): −9.176; body weight vs. vehicle over the course of the study [3]: not significantly different
